Reference: US20240099295A1, “CELL TREATMENT AGENT” (AYA Inc., priority 2021, published 2024)

Columns and labels:
Type in all cases: cell-based
[1] = system: rat corneal epithelial cells; experiment: Cell detaching and suspending effect (Experimental Example 4); conditions: dextran aqueous solution (MW 35000-50000), concentrations shown in Table 13; observed over time
Method: A culture solution in which FBS was added to a normal serum-free cell culture solution in a concentration of 10% (10% FBS cell culture solution) was prepared in a culture dish. To this, rat corneal epithelial cells were added at 10^6 cells/ml and cultured for 24 hours under normal cell culture conditions (37° C., CO2 concentration of 5%, humidity of 100%) to make the cultured cells fully adhere to the culture dish wall which is a scaffold.
The culture solution in the culture dish on which cultured cells obtained as described above had adhered was replaced with each of dextran sulfate aqueous solutions and a dextran aqueous solution, which are respectively obtained by dissolving dextran sulfate (Dextran sodium sulfate MW 36000-50000, available from FUJIFILM Wako Pure Chemical Corporation) and dextran (Dextran MW 35000-50000, available from FUJIFILM Wako Pure Chemical Corporation) in purified water and have concentrations shown in Table 13, and the resultant culture solutions were continuously cultured under normal cell culture conditions (37° C., CO2 concentration of 5%, humidity of 100%). For each adherent cell, detachment and suspension of adherent cells from the dish wall was observed over time. For determination of detachment and suspension, the culture dish was gently shaken manually to observe whether the cells were detached from the dish wall and suspended, and the case where 90% or more of the cells were detached and suspended was determined as detachment and suspension of adherent cells. The results are of N=4. In Table 13, “∘” means that the cells were detached and suspended, and “x” means that the cells were not detached and suspended.

[2] = system: Mouse malignant melanoma highly metastatic strain cell; experiment: Cell protective effect: cell survival during preservation under refrigeration (trypan blue excretion test); conditions: inhibitor b 0.25 mg/mL; 5% glucose solution; refrigerator 4° C.
Method: Using a 5% glucose solution as a conditioning solution, nafamostat mesilate (Fusan for Injection, available from Nichi-Iko Corporation), which is a proteolytic enzyme inhibitor, was added to the conditioning solution in the concentrations shown in Table 8 (in Fusan for Injection (available from Nichi-Iko Corporation), use of a 5% glucose solution as a dilution solution is specified) to prepare cell preservation solutions. To each cell preservation solution, cells of mouse malignant melanoma high metastatic strain were added at a concentration of 10^6 cells/ml and left in a refrigerator set at 4° C. for 48 hours, and then the average survival rate (%) of cells was determined in the same manner as in Experimental Example of (1-4-1-1). The results are of N=4.

[3] = system: Rat corneal epithelial cell; experiment: Cell protective effect: cell survival during preservation (trypan blue excretion test); conditions: for Average survival rate after preservation for 24 hours / Average survival rate at 24 hours: normal temperature (22° C.); for Average survival rate after preservation for 7 days / Average survival rate at 72 hours: refrigerator 4° C.
Method: (§1) Using a normal serum-free cell culture solution without FBS or a Ringer's solution (Otsuka Pharmaceutical Co., Ltd., Lactec Injection, Japanese Pharmacopoeia, Sodium L-lactate Ringer's solution) as a conditioning solution for use, for example, in preservation and transportation of cells, sodium alginate (Na alginate) (Fuji Chemical Industry Co., Ltd. Snow Algin SSL, viscosity of 1% aqueous solution is 30 mPa·s at 20° C.) was added to the conditioning solution in the concentrations shown in Table 1 to prepare cell preservation solutions. To each cell preservation solution, the above-described cells were added at a concentration of 10^6 cells/ml to satisfy the conditions shown in Table 1, and the resultant solution was left to stand in a room at normal temperature (22° C.) for 24 hours, and then whether cells were alive or dead was determined, and rates of viable cells (average survival rate (%)) were calculated and compared. Cell viability was determined by the trypan blue excretion test that is the ordinary method of confirming cell viability. The excretion test was performed according to the method described in “Denizot F., et al., Rapid colorimetric assay for cell growth and survival. Modifications to the tetrazolium dye procedure giving improved sensitivity and reliability. J. Immunol. Methods, 89, 271-277 (1986)”. The results are of N=4.
(§2) The average survival rate (%) was determined in the same manner as in Experimental Example (1-1-1) except that the preservation conditions were changed to leaving still for 72 hours in a refrigerator at a set temperature of 4° C. The results are of N=4.
The average survival rate (%) of cells was determined in the same manner as in Experimental Example (1-1-1) except that dextran sulfate (dextran sulfate special grade reagent available from NACALAI TESQUE, INC.) was used instead of sodium alginate and the conditions were as shown in Table 3. The results are of N=4.
The average survival rate (%) of cells was determined in the same manner as in Experimental Example (1-2-1) except that the preservation conditions were changed to leaving still for 72 hours in a refrigerator at a set temperature of 4° C. and to conditions shown in Table 4. The results are of N=3 in the case of using a serum-free cell culture solution, and are of N=4 in the case of using a Ringer's solution.
The average survival rate (%) of cells was determined in the same manner as in Experimental Example (1-1-1) except that heparin sodium (Heparin Na Mochida, unfractionated heparin, available from Mochida Pharmaceutical Co., Ltd.) was used instead of alginic acid and the conditions were as shown in Table 5. The results are of N=4.
The average survival rate (%) of cells was determined in the same manner as in Experimental Example (1-3-1) except that the preservation conditions were changed to leaving still for 72 hours in a refrigerator at a set temperature of 4° C. and to conditions shown in Table 6. The results are of N=4.
The average survival rate (%) of cells was determined in the same manner as in Experimental Example (1-3-2) except that urinastatin (Miraclid injection solution, containing 2.5 million units, available from Mochida Pharmaceutical Co., Ltd.) was used as a proteolytic enzyme inhibitor instead of heparin sodium and the conditions were as shown in Table 7. The results are of N=4. “Unit (U)” in the unit of concentration (units/mL) of inhibitor a in Table 7 can be measured, for example, by the quantitative method of urinastatin in the Japanese Pharmacopoeia 15th revision. Specifically, absorbance at 405 nm of a sample solution is measured with a UV 240 spectrophotometer, and concentration of urinastatin can be calculated from a calibration curve prepared in advance. […]

[4] = system: Chinese hamster fibroblast; experiment: as above; conditions: for Average survival rate at 24 hours / Average survival rate at 72 hours: Ringer's solution; for Average survival rate at 24 hours: normal temperature (22° C.); for Average survival rate at 72 hours: refrigerator 4° C.
Method: as §1, §2

[5] = system: Rat corneal epithelial cell; experiment: Cell dormancy effect: cell cycle analysis by flow cytometry; conditions: Na alginate 2.5 mg/mL (Wako first grade, 120 mPa·s); serum-free cell culture solution; cultured 48 hours at 37° C.
Method: Sodium alginate (sodium alginate first grade reagent, available from FUJIFILM Wako Pure Chemical Corporation, viscosity of 1% aqueous solution is 120 mPa·s at 20° C.), DS (the same as in Experimental Example 1), or sodium heparin (the same as in Experimental Example 1) was used as an active ingredient in the cell treatment agent, and whether cell dormancy occurs or not by action of the active ingredient was examined by comparing the activities of cell division and proliferation which are the most general cell activities in the following manner.
The cell cycle was analyzed by flow cytometry according to the method described in known literature (Piotr Pozarowski and Zbigniew Darzynkiewicz, “Analysis of Cell Cycle by Flow Cytometry,” Methods in Molecular Biology, vol. 281: Checkpoint Controls and Cancer, Volume 2), and frequency of cell division and proliferation was compared between different active ingredients of the cell treatment agent. A specific method is as follows. Using a normal serum-free cell culture solution as a conditioning solution (comparison reference (a)), (b) a cell preservation solution in which sodium alginate (Na alginate) is added to the conditioning solution in a concentration of 2.5 mg/ml, (c) a cell preservation solution in which DS is added to the conditioning solution in a concentration of 0.1 mg/ml, and (d) a cell preservation solution in which heparin sodium (heparin Na) is added to the conditioning solution in a concentration of 50 units/ml, were prepared. To these cell preservation solutions, rat corneal epithelial cells were added at a cell concentration of 10^5 cells/ml and cultured for 48 hours under normal cell culture conditions (37° C., CO2 concentration of 5%, humidity of 100%). The number of cells in each culture was determined by cell cycle analysis using flow cytometry to determine the number of cells in each cell cycle, and the percentage of cells in the S phase, G2 phase, and M phase, which are considered as the periods of the cell division and proliferation process, was compared with the percentage of cells in the G0 phase and G1 phase, which are considered as other periods. The results are of N=4.

[6] = Sodium alginate 0.5 mg/ml, Ringer's solution
[7] = Sodium alginate 2.5 mg/ml, Ringer's solution
[8] = Sodium alginate 50 mg/ml, Ringer's solution
[9] = Na alginate 0.63 mg/mL, Ringer's solution
[10] = Na alginate 0.63 mg/mL, serum-free cell culture solution
[11] = Na alginate 2.5 mg/mL, Ringer's solution
[12] = Na alginate 2.5 mg/mL, serum-free cell culture solution
[13] = Na alginate 5 mg/mL, serum-free cell culture solution

dextran [reference compound]
Detachment and suspension of adherent cells after replacement [1]: not detached and suspended in any of the cases

N=C(N)c1ccc2cc(OC(=O)c3ccc(N=C(N)N)cc3)ccc2c1 [inhibitor b, nafamostat mesilate]
Average survival rate at 48 hours [2]: 43%

sodium alginate [Sodium alginate 30 mPa · s (1% aqueous solution, 20° C.)]
Average survival rate after preservation for 24 hours ([3]; Sodium alginate 0.2 mg/ml, Ringer's solution): 50% | Average survival rate after preservation for 7 days [3, 6]: 51% | Average survival rate after preservation for 24 hours ([3]; Sodium alginate 1 mg/ml, Ringer's solution): 54% | Average survival rate after preservation for 7 days [3, 7]: 56%

sodium alginate [Sodium alginate 120 mPa · s (1% aqueous solution, 20° C.)]
Average survival rate after preservation for 24 hours ([3]; Sodium alginate 0.1 mg/ml, Ringer's solution): 62% | Average survival rate after preservation for 7 days [3, 6]: 53% | Average survival rate after preservation for 24 hours [3, 7]: 59% | Average survival rate after preservation for 7 days [3, 7]: 52%

low molecular weight heparin sodium [reference compound]
Effect of improving cell viability (cell protective effect) ([3]; rat corneal epithelial cells, same experiment as for heparin sodium, values not given): the cell protective effect was observed | Effect of improving cell viability (cell protective effect) ([4]; Chinese hamster fibroblasts, same preservation experiments, values not given): the cell protective effect was observed

sodium alginate [Sodium alginate 30 mPa · s (10% aqueous solution, 20° C.)]
Average survival rate after preservation for 7 days [3, 7]: 54% | Average survival rate after preservation for 7 days ([3]; Sodium alginate 10 mg/ml, Ringer's solution): 69% | Average survival rate after preservation for 24 hours ([3]; Sodium alginate 20 mg/ml, Ringer's solution): 46% | Average survival rate after preservation for 24 hours [3, 8]: 50% | Average survival rate after preservation for 7 days [3, 8]: 72%

sodium alginate [Na alginate]
Average survival rate at 24 hours [3, 9]: 52% | Average survival rate at 72 hours [3, 9]: 68% | Average survival rate at 24 hours [3, 10]: 60% | Average survival rate at 72 hours [3, 10]: 77% | Average survival rate at 24 hours ([3]; Na alginate 1.25 mg/mL, Ringer's solution): 51% | Average survival rate at 24 hours [3, 11]: 53% | Average survival rate at 72 hours [3, 11]: 72% | Average survival rate at 24 hours [3, 12]: 70% | Average survival rate at 72 hours [3, 12]: 80% | Average survival rate at 72 hours ([3]; Na alginate 5 mg/mL, Ringer's solution): 64% | Average survival rate at 24 hours [3, 13]: 74% | Average survival rate at 72 hours [3, 13]: 70% | Average survival rate at 24 hours ([4]; Na alginate 0.63 mg/mL): 56% | Average survival rate at 72 hours ([4]; Na alginate 0.63 mg/mL): 73% | Average survival rate at 24 hours ([4]; Na alginate 1.25 mg/mL): 57% | Average survival rate at 24 hours ([4]; Na alginate 2.5 mg/mL): 60% | Average survival rate at 72 hours ([4]; Na alginate 2.5 mg/mL): 77% | Average survival rate at 72 hours ([4]; Na alginate 5 mg/mL): 70% | Percentages of cells of each cell cycle: G0 phase + G1 phase [5]: 88.1% | Percentages of cells of each cell cycle: S phase + G2 phase + M phase [5]: 10.1%

B1: urinastatin (protein, UniProt P02760 206-352, looked up)
Inter-alpha-trypsin inhibitor …: AVLPQEEEGSGGGQLVTEVTKKEDSCQLGYSAGPCMGMTSRYFYNGTSMACETFQYGGCMGNGNNFVTEKECLQTCRTVAACNLPIVRGPCRAFIQLWAFDAVKGKCVLFPYGGCQGNGNKFYSEKECREYCGVPGDGDEELLRFSN
modifications: Inter-alpha-trypsin inhibitor light chain
Average survival rate at 72 hours ([3]; inhibitor a 5 units/mL, Ringer's solution): 70%
